Activity calls are given as the source filed them. The rule behind the calls is not given here.

Series [1] in a line: Cytotoxicity against rat HSC-T6 cells assessed as decrease in LDH release. Type of series: cell-based.
Series [2] has as its system HSC-T6. As to the kind of experiment: Antiproliferative activity against rat HSC-T6 cells at 10 to 100 ug/ml after 24 to 48 hrs by BrdU incorporation assay. Type of series: functional, cell-based.
Series [3] relates to HSC-T6. Description: Induction of cell death in rat HSC-T6 cells assessed as decrease in cell viability at 100 uM by MTT assay. Type of series: functional, cell-based. Conditions: TDE = time-dependent effect.
Series [4] can be described thus: Induction of apoptosis in rat HSC-T6 cells assessed as increase in caspase-3/7 activity at 10 to 100 ug/ml after 24 to 48 hrs. Type of series: functional.
Series [5] concerns HSC-T6. Description: Induction of cell death in rat HSC-T6 cells assessed as decrease in cell viability after 48 hrs by MTT assay. Type of series: functional, cell-based.
Series [6] can be described thus: Antifibrotic activity against rat HSC-T6 cells assessed as inhibition of proliferation after 48 hrs by BrdU incorporation assay. Type of series: functional, cell-based. Conditions: HSC-T6, 48 h.
For series [7], the system named is HSC-T6. As to the kind of experiment: Decrease in collagen content in rat HSC-T6 cells at 10 to 100 uM after 48 hrs by sirius red-based colorimetric assay. Type of series: functional, cell-based.
Series [8] can be described thus: Inhibition of rat HSC-T6 cell proliferation at 100 ug/ml after 48 hrs by BrdU incorporation assay. Type of series: functional. Conditions: HSC-T6, 48 h.

`C=C(C)[C@@H]1CC[C@]2(CO)CC[C@]3(C)[C@H](CC[C@@H]4[C@@]5(C)C[C@@H](O)[C@H](OC(=O)/C=C/c6ccc(O)c(O)c6)C(C)(C)[C@@H]5CC[C@]43C)[C@@H]12`: the Activity entry in series [1] was “Non-toxic”; in the series with HSC-T6 [3] it was “tde”; in series [4], 150%; in the series with HSC-T6 [5], “Dose-dependent effect”; in the series with HSC-T6 [7], “Dose-dependent effect”. In the series on HSC-T6 [2], the result was Active. Besides, the IC50 in series [6] is 23.9 µM.

As for `O=C(/C=C/CCc1ccc(O)c(O)c1)CCc1ccc(O)c(O)c1` [DEHYDROHIRSUTANONOL], the Activity entry in series [1] was “Non-toxic”; in the series on HSC-T6 [3], “tde”; in series [4], 150%; in the series on HSC-T6 [5], “Dose-dependent effect”; with HSC-T6 [7], “Dose-dependent effect”. Moreover, the outcome in the series on HSC-T6 [2] was Active. Further, in series [6], the IC50 is 14 µM.

Consider `O=C(O[C@@H]1Cc2c(O)cc(O)cc2O[C@@H]1c1cc(O)c(O)c(O)c1)c1cc(O)c(O)c(O)c1` [EPIGALOCATECHIN GALLATE], for which, in series [6], the IC50 turned out to be 9.9 µM.

Take `OC[C@@]1(O)CO[C@@H](OC[C@H]2O[C@@H](O[C@H](CCCCc3ccc(O)cc3)CCc3ccc(O)cc3)[C@H](O)[C@@H](O)[C@@H]2O)[C@@H]1O`: in series [6], the IC50 amounted to 39.1 µM. This compound yielded an inhibition at 100 µg/mL in series [8] of 22.7%.

The values above are taken from ChEMBL document CHEMBL1773019, “Antifibrotic constituents of Alnus firma on hepatic stellate cells” (Bioorg Med Chem Lett, 2011).
